According to the NIST ThermoML archive (doi:10.1021/je8001199):
Numbers after ± are expanded uncertainties.

What was measured:
[1] = 200 kPa, Liquid
[2] = xn = mol fraction of the nth substance listed; settings: 200 kPa, Liquid

`NCCN` [ethane-1,2-diamine] gave a mass density ([1]; 283.55 K) of 905.993 ± 0.17 kg/m3, a mass density ([1]; 293.06 K) of 897.168 ± 0.17 kg/m3 and a mass density ([1]; 302.4 K) of 888.38 ± 0.17 kg/m3. The mass density ([1]; 312.67 K) was 878.632 ± 0.18 kg/m3, the mass density ([1]; 323.15 K) was 868.618 ± 0.19 kg/m3 and the mass density ([1]; 332.78 K) was 859.342 ± 0.19 kg/m3. It also gave a mass density ([1]; 342.77 K) of 849.651 ± 0.2 kg/m3 and a mass density ([1]; 352.69 K) of 839.921 ± 0.2 kg/m3.

With `O` [water] + NCCN the mass density ([2]; 283.4 K, x1 = 1) was 999.862 ± 0.12 kg/m3, the mass density ([2]; 293.28 K, x1 = 1) was 998.365 ± 0.12 kg/m3 and the mass density ([2]; 302.62 K, x1 = 1) was 995.966 ± 0.12 kg/m3. The mass density ([2]; 312.13 K, x1 = 1) was 992.723 ± 0.12 kg/m3, the mass density ([2]; 322.73 K, x1 = 1) was 988.284 ± 0.12 kg/m3 and the mass density ([2]; 332.94 K, x1 = 1) was 983.292 ± 0.12 kg/m3. The mass density ([2]; 342.53 K, x1 = 1) was 978.02 ± 0.12 kg/m3 and the mass density ([2]; 352.19 K, x1 = 1) was 972.189 ± 0.13 kg/m3.

In the case of `NCCN` [ethane-1,2-diamine] + O, the mass density ([2]; 282.78 K, x2 = 0.3967) is reported as 956.193 ± 0.15 kg/m3, the mass density ([2]; 282.92 K, x2 = 0.2017) is reported as 929.116 ± 0.15 kg/m3 and the mass density ([2]; 282.96 K, x2 = 0.301) is reported as 942.071 ± 0.15 kg/m3. The mass density ([2]; 283.11 K, x2 = 0.8936) was 1000.8 ± 0.12 kg/m3, the mass density ([2]; 283.13 K, x2 = 0.1028) was 917.186 ± 0.16 kg/m3 and the mass density ([2]; 283.26 K, x2 = 0.5026) was 973.123 ± 0.15 kg/m3. For the same molecule, the mass density ([2]; 283.47 K, x2 = 0.7687) was 1005.97 ± 0.12 kg/m3, the mass density ([2]; 283.55 K, x2 = 0) was 905.993 ± 0.17 kg/m3 and the mass density ([2]; 283.69 K, x2 = 0.6032) was 989.21 ± 0.14 kg/m3. It also gave a mass density ([2]; 284.35 K, x2 = 0.7026) of 1001.48 ± 0.12 kg/m3, a mass density ([2]; 292.62 K, x2 = 0.8936) of 996.472 ± 0.12 kg/m3 and a mass density ([2]; 292.67 K, x2 = 0.5026) of 964.635 ± 0.16 kg/m3. The mass density ([2]; 292.85 K, x2 = 0.7026) was 994.548 ± 0.12 kg/m3, the mass density ([2]; 292.93 K, x2 = 0.2017) was 919.983 ± 0.16 kg/m3 and the mass density ([2]; 292.93 K, x2 = 0.301) was 933.047 ± 0.15 kg/m3. It also gave a mass density ([2]; 293.05 K, x2 = 0.1028) of 908.064 ± 0.16 kg/m3, a mass density ([2]; 293.06 K, x2 = 0) of 897.168 ± 0.17 kg/m3 and a mass density ([2]; 293.09 K, x2 = 0.3967) of 946.948 ± 0.15 kg/m3. The mass density ([2]; 293.24 K, x2 = 0.7687) was 998.968 ± 0.12 kg/m3, the mass density ([2]; 293.29 K, x2 = 0.6032) was 980.744 ± 0.14 kg/m3 and the mass density ([2]; 301.58 K, x2 = 0.7026) was 987.238 ± 0.13 kg/m3. It also gave a mass density ([2]; 302.39 K, x2 = 0.6032) of 972.594 ± 0.14 kg/m3, a mass density ([2]; 302.4 K, x2 = 0) of 888.38 ± 0.17 kg/m3 and a mass density ([2]; 302.47 K, x2 = 0.7687) of 992.107 ± 0.12 kg/m3. The mass density ([2]; 302.85 K, x2 = 0.3967) was 938.019 ± 0.16 kg/m3, the mass density ([2]; 302.85 K, x2 = 0.5026) was 955.328 ± 0.16 kg/m3 and the mass density ([2]; 302.96 K, x2 = 0.301) was 923.821 ± 0.16 kg/m3. It also gave a mass density ([2]; 302.97 K, x2 = 0.8936) of 991.261 ± 0.12 kg/m3, a mass density ([2]; 302.99 K, x2 = 0.1028) of 898.81 ± 0.17 kg/m3 and a mass density ([2]; 303.1 K, x2 = 0.2017) of 910.588 ± 0.16 kg/m3. It also gave a mass density ([2]; 311.86 K, x2 = 0.7026) of 978.33 ± 0.13 kg/m3, a mass density ([2]; 312.55 K, x2 = 0.6032) of 963.3 ± 0.15 kg/m3 and a mass density ([2]; 312.59 K, x2 = 0.7687) of 984.36 ± 0.12 kg/m3. It also gave a mass density ([2]; 312.67 K, x2 = 0) of 878.632 ± 0.18 kg/m3, a mass density ([2]; 312.77 K, x2 = 0.5026) of 946.166 ± 0.16 kg/m3 and a mass density ([2]; 313 K, x2 = 0.301) of 914.5 ± 0.17 kg/m3. It also gave a mass density ([2]; 313.02 K, x2 = 0.8936) of 985.719 ± 0.12 kg/m3, a mass density ([2]; 313.11 K, x2 = 0.1028) of 889.308 ± 0.17 kg/m3 and a mass density ([2]; 313.14 K, x2 = 0.2017) of 901.221 ± 0.17 kg/m3. It also gave a mass density ([2]; 313.98 K, x2 = 0.3967) of 927.719 ± 0.16 kg/m3, a mass density ([2]; 322.34 K, x2 = 0.7687) of 976.647 ± 0.13 kg/m3 and a mass density ([2]; 322.65 K, x2 = 0.6032) of 953.972 ± 0.15 kg/m3. The mass density ([2]; 322.72 K, x2 = 0.7026) was 968.66 ± 0.14 kg/m3, the mass density ([2]; 322.86 K, x2 = 0.301) was 905.205 ± 0.17 kg/m3 and the mass density ([2]; 322.88 K, x2 = 0.5026) was 936.708 ± 0.17 kg/m3. For the same molecule, the mass density ([2]; 322.93 K, x2 = 0.2017) was 891.98 ± 0.17 kg/m3, the mass density ([2]; 323.04 K, x2 = 0.1028) was 879.883 ± 0.18 kg/m3 and the mass density ([2]; 323.15 K, x2 = 0) was 868.618 ± 0.19 kg/m3. The mass density ([2]; 323.15 K, x2 = 0.8936) was 979.69 ± 0.12 kg/m3, the mass density ([2]; 323.75 K, x2 = 0.3967) was 918.543 ± 0.17 kg/m3 and the mass density ([2]; 332.41 K, x2 = 0.7026) was 960.004 ± 0.14 kg/m3. The mass density ([2]; 332.77 K, x2 = 0.7687) was 968.171 ± 0.13 kg/m3, the mass density ([2]; 332.78 K, x2 = 0) was 859.342 ± 0.19 kg/m3 and the mass density ([2]; 332.89 K, x2 = 0.5026) was 927.173 ± 0.17 kg/m3. The mass density ([2]; 332.96 K, x2 = 0.301) was 895.557 ± 0.17 kg/m3, the mass density ([2]; 333.02 K, x2 = 0.6032) was 944.229 ± 0.16 kg/m3 and the mass density ([2]; 333.1 K, x2 = 0.1028) was 870.208 ± 0.19 kg/m3. The mass density ([2]; 333.11 K, x2 = 0.2017) was 882.167 ± 0.18 kg/m3, the mass density ([2]; 333.38 K, x2 = 0.8936) was 973.322 ± 0.13 kg/m3 and the mass density ([2]; 333.53 K, x2 = 0.3967) was 909.227 ± 0.17 kg/m3. For the same molecule, the mass density ([2]; 342.6 K, x2 = 0.7687) was 959.937 ± 0.14 kg/m3, the mass density ([2]; 342.64 K, x2 = 0.5026) was 917.789 ± 0.18 kg/m3 and the mass density ([2]; 342.77 K, x2 = 0) was 849.651 ± 0.2 kg/m3. The mass density ([2]; 342.81 K, x2 = 0.3967) was 900.276 ± 0.18 kg/m3, the mass density ([2]; 342.98 K, x2 = 0.301) was 885.862 ± 0.18 kg/m3 and the mass density ([2]; 343.04 K, x2 = 0.1028) was 860.531 ± 0.19 kg/m3. It also gave a mass density ([2]; 343.08 K, x2 = 0.7026) of 950.214 ± 0.15 kg/m3, a mass density ([2]; 343.09 K, x2 = 0.8936) of 966.519 ± 0.13 kg/m3 and a mass density ([2]; 343.13 K, x2 = 0.2017) of 872.529 ± 0.19 kg/m3. For the same molecule, the mass density ([2]; 352.14 K, x2 = 0.7687) was 951.742 ± 0.14 kg/m3, the mass density ([2]; 352.69 K, x2 = 0) was 839.921 ± 0.2 kg/m3 and the mass density ([2]; 352.71 K, x2 = 0.5026) was 907.894 ± 0.18 kg/m3. The mass density ([2]; 352.83 K, x2 = 0.301) was 876.2 ± 0.19 kg/m3, the mass density ([2]; 352.9 K, x2 = 0.8936) was 959.494 ± 0.13 kg/m3 and the mass density ([2]; 353.02 K, x2 = 0.1028) was 850.773 ± 0.2 kg/m3. The mass density ([2]; 353.03 K, x2 = 0.2017) was 862.815 ± 0.19 kg/m3, the mass density ([2]; 353.34 K, x2 = 0.3967) was 889.949 ± 0.18 kg/m3 and the mass density ([2]; 353.48 K, x2 = 0.7026) was 940.524 ± 0.15 kg/m3.
